From patent publication US11001590B2, “Pyrazolopyrimidine derivatives” (BAYER ANIMAL HEALTH GMBH, priority 2016, dated 2021) come the findings set out here.

Sequence of C. elegans Slo-1a (Q95V25 whole entry): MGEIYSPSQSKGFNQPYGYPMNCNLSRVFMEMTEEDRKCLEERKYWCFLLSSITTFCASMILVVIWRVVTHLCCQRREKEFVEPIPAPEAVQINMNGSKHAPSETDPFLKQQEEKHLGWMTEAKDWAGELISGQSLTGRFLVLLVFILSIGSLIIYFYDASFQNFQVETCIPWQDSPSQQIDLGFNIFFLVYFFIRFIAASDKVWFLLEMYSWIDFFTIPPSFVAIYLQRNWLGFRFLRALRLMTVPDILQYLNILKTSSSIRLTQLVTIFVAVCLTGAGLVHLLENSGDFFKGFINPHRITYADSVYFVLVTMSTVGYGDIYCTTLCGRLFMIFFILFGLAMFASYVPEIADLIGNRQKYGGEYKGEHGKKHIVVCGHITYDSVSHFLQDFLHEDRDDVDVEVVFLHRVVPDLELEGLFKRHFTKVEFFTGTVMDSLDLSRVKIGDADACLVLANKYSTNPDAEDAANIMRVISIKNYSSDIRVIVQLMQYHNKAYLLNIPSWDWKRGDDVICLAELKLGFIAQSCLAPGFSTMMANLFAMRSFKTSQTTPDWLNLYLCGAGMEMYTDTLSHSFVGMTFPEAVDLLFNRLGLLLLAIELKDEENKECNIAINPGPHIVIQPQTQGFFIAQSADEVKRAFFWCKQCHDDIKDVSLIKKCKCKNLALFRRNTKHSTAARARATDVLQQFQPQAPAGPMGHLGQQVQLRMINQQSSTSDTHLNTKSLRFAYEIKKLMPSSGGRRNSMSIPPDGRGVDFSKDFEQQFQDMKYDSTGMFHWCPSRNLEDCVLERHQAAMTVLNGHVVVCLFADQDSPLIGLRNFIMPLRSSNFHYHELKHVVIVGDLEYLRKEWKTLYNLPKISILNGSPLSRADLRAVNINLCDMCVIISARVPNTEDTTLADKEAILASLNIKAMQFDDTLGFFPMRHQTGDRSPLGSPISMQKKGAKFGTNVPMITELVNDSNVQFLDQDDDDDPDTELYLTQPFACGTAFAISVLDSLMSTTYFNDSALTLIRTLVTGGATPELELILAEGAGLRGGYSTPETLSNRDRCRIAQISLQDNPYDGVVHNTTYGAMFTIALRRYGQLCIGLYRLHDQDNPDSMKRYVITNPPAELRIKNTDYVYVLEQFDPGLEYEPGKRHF

The first data set addresses C. elegans Slo-1a (Caenorhabditis elegans, UniProt Q95V25). The experiment in a line: In vitro assay 1: C. elegans Slo-1a, action at a recombinant C. elegans CHO cell line (membrane potential measurement).
Conditions: not given
Turning to `Cc1nn2c(C(C)C)c(C(=O)NC3CCc4ccccc43)cnc2c1-c1cccc(C(F)(F)F)c1` (centres unmarked) [Example 1], the concentration for a half-maximal effect (EC50) (as a rule, the concentration that produces a half-maximal response) was 39.8 nM.

On to `Cc1nn2c(C(C)C)c(C(=O)NC3CCCc4ccccc43)cnc2c1-c1cccc(C(F)(F)F)c1` (centres unmarked) [Example 2], for which the EC50 was 31.6 nM.

For the compound `Cc1nn2c(C(C)C)c(C(=O)N[C@H]3CCCc4ccccc43)cnc2c1-c1cc(Cl)cc(Cl)c1` [Example 7], the half-maximal effective concentration (EC50) is 20 nM.

On to `Cc1nn2c(C)c(C(=O)N[C@H]3CCCc4ccccc43)cnc2c1-c1cccc(Cl)c1` [Example 46], for which the concentration for a half-maximal effect (EC50) was 251 nM.

As for `CC(C)c1c(C(=O)N[C@H]2CCc3ccccc32)cnc2c(-c3cccc(Cl)c3)c(C(F)(F)F)nn12` [Example 48], the EC50 is 251 nM.

`CC(C)c1c(C(=O)N[C@H]2CCCc3ccccc32)cnc2c(-c3cccc(C(F)(F)F)c3)c(C(F)(F)F)nn12` [Example 56]: the concentration for a half-maximal effect (EC50) was 398 nM.

Still in this data set, the particulars now being: CHO cells expressing C. elegans Slo-1a; voltage sensitive dye, FLIPR Tetra; negative decadic logarithm of EC50.
Turning to `Cc1nn2c(N(C)CC[S+](C)[O-])c(C(=O)NC3CCOc4ccccc43)cnc2c1-c1cc(Cl)cc(Cl)c1` (mixture of isomers) [Example 540], the pE50 stood at 7.7.

Regarding `Cc1ccc2c(c1)C(NC(=O)c1cnc3c(-c4c(F)cccc4Cl)c(C)nn3c1C(C)C)CCO2` (racemic) [Example 237], the pE50 was found to be 7.5.

`Cc1nn2c(C(C)C)c(C(=O)NC3CCOc4ccc(F)cc43)cnc2c1-c1c(F)cccc1Cl` (racemic) [Example 254]: the pE50 is recorded as 8.1.

`Cc1ccc2c(c1)[C@@H](NC(=O)c1cnc3c(-c4cccc(C(F)(F)F)c4)c(C)nn3c1C(C)C)CCC2` [Example 5]: the pE50 came out at 7.2.

System in another data set: not listed separately
Briefly: log P by HPLC on reversed phase columns (Method L0; [a] acidic, [b] neutral range).
Conditions: not given
In the case of `Cc1nn2c(C(C)C)c(C(=O)NC3CCc4ccccc43)cnc2c1-c1cccc(C(F)(F)F)c1` (centres unmarked) [Example 1], the chromatographic logP (in general, a lipophilicity value derived from retention on a column) was found to be 5.29.

Regarding `Cc1nn2c(C(C)C)c(C(=O)NC3CCCc4ccccc43)cnc2c1-c1cccc(C(F)(F)F)c1` (centres unmarked) [Example 2], the chromatographic logP was determined as 5.59.

`Cc1nn2c(C(C)C)c(C(=O)N[C@H]3CCCc4ccccc43)cnc2c1-c1cc(Cl)cc(Cl)c1` [Example 7] showed a chromatographic logP of 6.39.

In turn, `Cc1nn2c(C)c(C(=O)N[C@H]3CCCc4ccccc43)cnc2c1-c1cccc(Cl)c1` [Example 46] returned a chromatographic logP of 4.42.

Consider `CC(C)c1c(C(=O)N[C@H]2CCc3ccccc32)cnc2c(-c3cccc(Cl)c3)c(C(F)(F)F)nn12` [Example 48], for which the chromatographic logP came out at 5.46.

Compound `CC(C)c1c(C(=O)N[C@H]2CCCc3ccccc32)cnc2c(-c3cccc(C(F)(F)F)c3)c(C(F)(F)F)nn12` [Example 56] showed a chromatographic logP of 5.8.

Still in this data set, the particulars now being: HPLC on reversed phase columns (Method L0).
As to `Cc1ccc2c(c1)C(NC(=O)c1cnc3c(-c4c(F)cccc4Cl)c(C)nn3c1C(C)C)CCO2` (racemic) [Example 237], the log partition coefficient (log P) (usually a log measure of how a compound divides between an organic and an aqueous phase) came to 4.67.

Turning to `Cc1nn2c(C(C)C)c(C(=O)NC3CCOc4ccc(F)cc43)cnc2c1-c1c(F)cccc1Cl` (racemic) [Example 254], the “log P” value came to 4.45.

For the compound `CC(C)Sc1nn2c(C(C)C)c(C(=O)N[C@H]3CCOc4ccccc43)cnc2c1-c1cc(Cl)cc(Cl)c1` [Example 198], the “log P” value is on record as 7.

Regarding `CC(C)Sc1nn2c(C(C)C)c(C(=O)N[C@H]3CCc4ccccc43)cnc2c1-c1cc(Cl)cc(Cl)c1` [Example 199], the “log P” value amounted to 7.34.

As for `CCSc1nn2c(C(C)C)c(C(=O)N[C@H]3CCOc4ccccc43)cnc2c1-c1cc(Cl)cc(Cl)c1` [Example 200], the “log P” value amounted to 6.71.

`CCSc1nn2c(C(C)C)c(C(=O)N[C@H]3CCc4ccccc43)cnc2c1-c1cc(Cl)cc(Cl)c1` [Example 201]: the “log P” value is 6.93.

With `CC(C)c1c(C(=O)N[C@H]2CCc3ccccc32)cnc2c(-c3cc(Cl)cc(Cl)c3)c(S(=O)(=O)C(C)C)nn12` [Example 214], the “log P” value stood at 4.85.

For the compound `Cc1nn2c(C(C)C)c(C(=O)N[C@H]3CCOc4ccccc43)cnc2c1-c1ccc2c(c1)CCC2=O` [Example 250], the lipophilicity (log P) came to 3.75.

In the case of `Cc1nc2c(-c3cc(Cl)cc(Cl)c3)c(C)nn2c(C)c1C(=O)N[C@H]1CCOc2ccccc21` [Example 268], the “log P” value worked out at 4.76.

For the compound `Cc1nn2c(C(C)C)c(C(=O)N[C@H]3CCc4ccccc43)cnc2c1-c1ccc(C#N)cc1` [Examples 301], the lipophilicity (log P) was found to be 4.28.

For `Cc1nn2c(C(C)C)c(C(=O)N[C@H]3CCc4ccccc43)cnc2c1-c1cn[nH]c1` [Examples 307], the “log P” value is 2.75.

Take `CC(=O)Nc1ccc(-c2c(C)nn3c(C(C)C)c(C(=O)N[C@H]4CCc5ccccc54)cnc23)cc1` [Examples 327]: the lipophilicity (log P) came out at 3.24.

`Cc1nn2c(C(C)C)c(C(=O)N[C@H]3CCc4ccccc43)cnc2c1-c1ccc(NS(C)(=O)=O)cc1` [Examples 330]: the log partition coefficient (log P) came out at 3.38.

For `Cc1nn2c(C(C)C)c(C(=O)N[C@H]3CCc4ccccc43)cnc2c1-c1ccc(OCC(F)(F)F)cc1` [Examples 336], the log partition coefficient (log P) is 4.91.

Regarding `COCc1cccc(-c2c(C)nn3c(C(F)(F)F)c(C(=O)N[C@H]4CCc5ccccc54)cnc23)c1` [Examples 371], the lipophilicity (log P) turned out to be 4.32.

For `Cc1nn2c(C(F)(F)F)c(C(=O)N[C@H]3CCc4ccccc43)cnc2c1-c1cccc(Cl)c1` [Examples 382], the “log P” value is on record as 4.97.

For `Cc1nn2c(C(F)(F)F)c(C(=O)N[C@H]3CCc4ccccc43)cnc2c1-c1cccc(OC(F)(F)F)c1` [Examples 383], the log partition coefficient (log P) was 5.21.

On to `Cc1nn2c(C(F)(F)F)c(C(=O)N[C@H]3CCc4ccccc43)cnc2c1-c1cccc(C(F)(F)F)c1` [Examples 384], for which the log partition coefficient (log P) was 5.04.

With `Cc1nn2c(C(F)(F)F)c(C(=O)N[C@H]3CCc4ccccc43)cnc2c1-c1cccc(N(C)C)c1` [Examples 385], the “log P” value is on record as 4.1.

As for `COc1cccc(-c2c(C)nn3c(C(F)(F)F)c(C(=O)N[C@H]4CCc5ccccc54)cnc23)c1` [Examples 386], the log partition coefficient (log P) stood at 4.34.

Turning to `Cc1nn2c(C(F)(F)F)c(C(=O)N[C@H]3CCc4ccccc43)cnc2c1-c1cccc(F)c1` [Examples 387], the “log P” value is recorded as 4.53.

The same data set, now with this note: HPLC on reversed phase columns (Method L0); last column of Table 1, column head not shown.
As for `Cc1nn2c(N(C)CC[S+](C)[O-])c(C(=O)NC3CCOc4ccccc43)cnc2c1-c1cc(Cl)cc(Cl)c1` (mixture of isomers) [Example 540], the “log P” value was 2.88.

On to `Cc1nn2c(C(F)(F)F)c(C(=O)N[C@H]3CCc4ccccc43)cnc2c1-c1c(F)cccc1F` [Example 410], for which the lipophilicity (log P) stood at 4.16.

Regarding `CC(C)c1c(C(=O)N[C@H]2CCc3ccccc32)cnc2c(-c3cccc(Cl)c3)c(C3CC3)nn12` [Example 411], the “log P” value is recorded as 5.87.

`Cc1nn2c(C(F)(F)F)c(C(=O)N[C@H]3CCc4ccccc43)cnc2c1-c1ccccc1Cl` [Example 412]: the “log P” value was 4.43.

`CC(C)c1c(C(=O)N[C@H]2CCc3ccccc32)cnc2c(-c3ccccc3Cl)c(C3CC3)nn12` [Example 414]: the lipophilicity (log P) turned out to be 5.87.

On to `CC(C)c1c(C(=O)N[C@H]2CCc3ccccc32)cnc2c(-c3cccc(C(F)(F)F)c3)c(C3CC3)nn12` [Example 415], for which the “log P” value was 5.94.

For the compound `CC(C)c1c(C(=O)N[C@H]2CCc3ccccc32)cnc2c(-c3cccc(F)c3)c(C3CC3)nn12` [Example 416], the “log P” value came to 5.41.

Take `Cc1nn2c(C(C)C)c(C(=O)N[C@H]3CCc4ccccc43)cnc2c1-n1cccn1` [Example 426]: the log partition coefficient (log P) is reported as 3.29.

`COc1c(C(=O)N[C@H]2CCc3ccccc32)cnc2c(-c3c(F)cccc3Cl)c(C)nn12` [Example 513]: the “log P” value came to 2.96.

Regarding `COc1c(C(=O)N[C@H]2CCOc3ccccc32)cnc2c(-c3c(F)cccc3Cl)c(C)nn12` [Example 514], the “log P” value was 4.93.

For `COc1c(C(=O)N[C@H]2CCOc3ccccc32)cnc2c(-c3cc(Cl)cc(Cl)c3F)c(C)nn12` [Example 515], the “log P” value was determined as 3.17.

As for `COc1c(C(=O)N[C@H]2CCOc3ccccc32)cnc2c(-c3ccc(F)c(F)c3)c(C)nn12` [Example 519], the lipophilicity (log P) amounted to 2.88.

Turning to `COc1c(C(=O)N[C@H]2CCOc3ccccc32)cnc2c(-c3cc(Cl)cc(Cl)c3)c(C)nn12` [Example 521], the lipophilicity (log P) is listed as 3.56.

Consider `Cc1nn2c(C3CC3)c(C(=O)N[C@H]3CCOc4ccccc43)cnc2c1-c1ccnc(N2CCOCC2)c1` [Example 526], for which the “log P” value is on record as 1.53.

Turning to `Cc1nn2c(C(C)C)c(C(=O)N[C@H]3CCc4ccccc43)cnc2c1-c1cnn(CCN2CCOCC2)c1` [Examples 397], the lipophilicity (log P) is on record as 1.81.

As for `Cc1nn2c(C(C)C)c(C(=O)N[C@H]3CCc4ccccc43)cnc2c1-c1cnn(CCN(C)C)c1` [Examples 404], the log partition coefficient (log P) came out at 1.75.

With `CC(C)c1c(C(=O)N[C@H]2CCc3ccccc32)cnc2c(-c3cccc(OC(F)(F)F)c3)c(C3CC3)nn12` [Examples 406], the log partition coefficient (log P) worked out at 6.11.

Regarding `COCc1cccc(-c2c(C3CC3)nn3c(C(C)C)c(C(=O)N[C@H]4CCc5ccccc54)cnc23)c1` [Examples 409], the lipophilicity (log P) is listed as 5.13.

Still in this data set, the particulars now being: HPLC on reversed phase columns, Method L0, [a] acidic range.
`Cc1ccc2c(c1)[C@@H](NC(=O)c1cnc3c(-c4cccc(C(F)(F)F)c4)c(C)nn3c1C(C)C)CCC2` [Example 5]: the “logP (Method L0) [a]” value came out at 5.99.

Take `O=C(N[C@H]1CCc2ccccc21)c1cnc2c(-c3cccc(C(F)(F)F)c3)c(C(F)(F)F)nn2c1` [Example 87]: the “logP (Method L0) [a]” value turned out to be 4.66.

As to `Cc1c(C(=O)N[C@H]2CCCc3ccccc32)cnc2c(-c3ccccc3Cl)c(C(F)(F)F)nn12` [Example 90], the “logP (Method L0) [a]” value was 4.5.

Consider `Cc1nn2c(C(C)C)c(C(=O)N[C@H]3CCOc4ccc(Cl)cc43)cnc2c1-c1ccc(Cl)cc1` [Example 106], for which the “logP (Method L0) [a]” value is recorded as 5.36.

For `Cc1ccc2c(c1)[C@@H](NC(=O)c1cnc3c(-c4cccc(Cl)c4)c(C)nn3c1C(C)C)CCC2` [Example 109], the “logP (Method L0) [a]” value worked out at 5.9.

As to `Cc1ccc2c(c1)[C@@H](NC(=O)c1cnc3c(-c4ccc(F)c(F)c4)c(C)nn3c1C(C)C)CCC2` [Example 112], the “logP (Method L0) [a]” value is reported as 5.55.

As for `Cc1ccc2c(c1)[C@@H](NC(=O)c1cnc3c(-c4ccc(Cl)cc4)c(C)nn3c1C(C)C)CCC2` [Example 113], the “logP (Method L0) [a]” value turned out to be 5.88.

Turning to `Cc1nn2c(C(C)C)c(C(=O)N[C@H]3CCc4ccccc43)cnc2c1-c1ccc(Cl)c(C(=O)NC2CC2)c1` [Example 120], the “logP (Method L0) [a]” value amounted to 3.78.

For the compound `CC(C)c1c(C(=O)N[C@H]2CCOc3ccccc32)cnc2c(-c3cnn(CC(F)(F)F)c3)c(C(F)(F)F)nn12` [Example 129], the “logP (Method L0) [a]” value amounted to 4.21.

`CC(C)c1c(C(=O)N[C@H]2CCc3ccccc32)cnc2c(-c3ccc(F)nc3)c(C(F)(F)F)nn12` [Example 161]: the “logP (Method L0) [a]” value was found to be 4.35.

On to `CC(C)c1c(C(=O)N[C@H]2CCc3ccccc32)cnc2c(-c3ccc(F)cc3)c(C(F)(F)F)nn12` [Example 162], for which the “logP (Method L0) [a]” value is recorded as 4.95.

As to `CC(C)c1c(C(=O)N[C@H]2CCc3ccccc32)cnc2c(-c3cnc(F)c(F)c3)c(C(F)(F)F)nn12` [Example 163], the “logP (Method L0) [a]” value came out at 4.76.

Take `CC(C)c1c(C(=O)N[C@H]2CCc3ccccc32)cnc2c(-c3ccc(Cl)nc3)c(C(F)(F)F)nn12` [Example 164]: the “logP (Method L0) [a]” value was determined as 4.7.
